# Results from patent US20140094424A1, “MICROBICIDAL COMPOSITIONS AND METHODS OF PRODUCTION USE THEREOF” (priority 2011, published 2014).
# Columns and labels:
# Experiment in all cases: MBC (minimum bactericidal concentration) test in Wash NEXT reagent
# Assay type in all cases: cell-based
# Pseudomonas putida (K) = system: Pseudomonas putida (K)
# Method: (§1) The stock organisms were thawed and subbed prior to beginning the MBC test. Molds were subbed to SDA plates one week before, and the bacteria were subbed to TAT agar plates 24 hours prior to the start of the test. All plates were incubated at 32 degrees C.
# (§2) Each bacterial organism was inoculated into 40 ml sterile saline in a centrifuge tube to create a density of MacFarland #1. Two serial dilutions of 1:100 were then made, resulting in 10^−2 and 10^−4 concentrations. Each dilution was vortexed before it was sampled, and sterile Eppendorf pipette tips were used to make each transfer. The 10^−4 dilution was spiral plated to yield the initial inoculum concentration.
# (§3) MBC trays were set up with the prepared test reagent. Using a Matrix pipettor, 100 μl aliquots of reagent were distributed into the wells, diluting the amount of preservative from 100% to 10% increments, using unpreserved reagent as the diluent. In one row, 100% non-preserved reagent acted as a positive control and served as a benchmark for a full mat of growth. In well #12H, 100 μl unpreserved reagent was pipetted, and this well was not inoculated with organisms, as it served as the negative control. Once all of the trays were prepared, the prepared bacteria/mold suspensions were poured into the MBC inoculating trays. These were placed onto the reagent trays, and 0.01 ml inoculum was introduced into the 100 μl of reagent in each well.
# (§4) This was done by dipping a sterile cotton swab into each well, and absorbing all of the liquid in the well. The swab was rolled onto a TAT agar plate ensuring that the entire swab touches the agar. Plates ware incubated at 32 degrees C. for 48 hours to 7 days, depending on the organism. Observations for growth were performed by a scoring matrix using + for a full mat, +/− for some growth, a numerical value for an actual colony count, and—for no growth.
# (§5) Below are tables that contain the data obtained in Example 1. The MBC test is scored by (+) indicating a full grown mat of organisms, equivalent to the organisms in the unpreserved reagent. (+/−) indicates there is some kill evident disturbing that mat or bringing the quantities down to an almost countable level. An actual number is the actual number of colonies growing at that concentration of preservative. (−) indicates no growth found. The MBC trays were stored at room temperature for the entire test.
# (§6) The materials and methods and analysis of the MBC test were the same as in Example 1.
# [1] = system: Pseudomonas fluorescens (D)
# Method: as §1, §2, §3, §4, §5, §6
# [2] = system: Pseudomonas aeruginosa (L)
# Method: as §1, §2, §3, §4, §5, §6
smiles,measurement,setting,value
"Cc1cc(NS(=O)(=O)c2ccc(N)cc2)no1 [Sulfamethoxazole, sulfamethoxazole]",MBC test growth score,"Pseudomonas putida (K); 10% preservative, 8 hour",+
same,MBC test growth score,"Pseudomonas putida (K); 10% preservative, 24 hour",2
same,MBC test growth score,"Pseudomonas putida (K); 10% preservative, 48 hour",+/−
same,MBC test growth score,"Pseudomonas putida (K); 10% preservative, 72 hour",+/−
same,MBC test growth score,"Pseudomonas putida (K); 20% preservative, 8 hour",+
same,MBC test growth score,"Pseudomonas putida (K); 20% preservative, 24 hour",+/−
same,MBC test growth score,"Pseudomonas putida (K); 20% preservative, 48 hour",+/−
same,MBC test growth score,"Pseudomonas putida (K); 20% preservative, 72 hour",−
same,MBC test growth score,"Pseudomonas putida (K); 30% preservative, 8 hour",+
same,MBC test growth score,"Pseudomonas putida (K); 30% preservative, 24 hour",+/−
same,MBC test growth score,"Pseudomonas putida (K); 30% preservative, 48 hour",22
same,MBC test growth score,"Pseudomonas putida (K); 30% preservative, 72 hour",−
same,MBC test growth score,"Pseudomonas putida (K); 40% preservative, 8 hour",+
same,MBC test growth score,"Pseudomonas putida (K); 40% preservative, 24 hour",+/−
same,MBC test growth score,"Pseudomonas putida (K); 40% preservative, 48 hour",20
same,MBC test growth score,"Pseudomonas putida (K); 40% preservative, 72 hour",−
same,MBC test growth score,"Pseudomonas putida (K); 50% preservative, 8 hour",+
same,MBC test growth score,"Pseudomonas putida (K); 50% preservative, 24 hour",+/−
same,MBC test growth score,"Pseudomonas putida (K); 50% preservative, 72 hour",−
same,MBC test growth score,"Pseudomonas putida (K); 60% preservative, 8 hour",+
same,MBC test growth score,"Pseudomonas putida (K); 60% preservative, 24 hour",+/−
same,MBC test growth score,"Pseudomonas putida (K); 60% preservative, 48 hour",18
same,MBC test growth score,"Pseudomonas putida (K); 60% preservative, 72 hour",−
same,MBC test growth score,"Pseudomonas putida (K); 70% preservative, 8 hour",+
same,MBC test growth score,"Pseudomonas putida (K); 70% preservative, 24 hour",+
same,MBC test growth score,"Pseudomonas putida (K); 70% preservative, 48 hour",−
same,MBC test growth score,"Pseudomonas putida (K); 70% preservative, 72 hour",−
same,MBC test growth score,"Pseudomonas putida (K); 80% preservative, 8 hour",+
same,MBC test growth score,"Pseudomonas putida (K); 80% preservative, 24 hour",+
same,MBC test growth score,"Pseudomonas putida (K); 80% preservative, 48 hour",−
same,MBC test growth score,"Pseudomonas putida (K); 80% preservative, 72 hour",−
same,MBC test growth score,"Pseudomonas putida (K); 90% preservative, 8 hour",+
same,MBC test growth score,"Pseudomonas putida (K); 90% preservative, 24 hour",+
same,MBC test growth score,"Pseudomonas putida (K); 90% preservative, 48 hour",−
same,MBC test growth score,"Pseudomonas putida (K); 90% preservative, 72 hour",−
same,MBC test growth score,"Pseudomonas putida (K); 100% preservative, 8 hour",+
same,MBC test growth score,"Pseudomonas putida (K); 100% preservative, 24 hour",+
same,MBC test growth score,"Pseudomonas putida (K); 100% preservative, 48 hour",−
same,MBC test growth score,"Pseudomonas putida (K); 100% preservative, 72 hour",−
same,MBC test growth score,"[1]; 10% preservative, 8 hour",+
same,MBC test growth score,"[1]; 10% preservative, 24 hour",+
same,MBC test growth score,"[1]; 10% preservative, 48 hour",+/−
same,MBC test growth score,"[1]; 10% preservative, 72 hour",+/−
same,MBC test growth score,"[1]; 20% preservative, 8 hour",+
same,MBC test growth score,"[1]; 20% preservative, 24 hour",+
same,MBC test growth score,"[1]; 20% preservative, 48 hour",+/−
same,MBC test growth score,"[1]; 20% preservative, 72 hour",+/−
same,MBC test growth score,"[1]; 30% preservative, 8 hour",+
same,MBC test growth score,"[1]; 30% preservative, 24 hour",+
same,MBC test growth score,"[1]; 30% preservative, 48 hour",+
same,MBC test growth score,"[1]; 30% preservative, 72 hour",+/−
same,MBC test growth score,"[1]; 40% preservative, 8 hour",+
same,MBC test growth score,"[1]; 40% preservative, 24 hour",+
same,MBC test growth score,"[1]; 40% preservative, 48 hour",+
same,MBC test growth score,"[1]; 40% preservative, 72 hour",+/−
same,MBC test growth score,"[1]; 50% preservative, 8 hour",+
same,MBC test growth score,"[1]; 50% preservative, 24 hour",+
same,MBC test growth score,"[1]; 50% preservative, 48 hour",+
same,MBC test growth score,"[1]; 50% preservative, 72 hour",+/−
same,MBC test growth score,"[1]; 60% preservative, 8 hour",+
same,MBC test growth score,"[1]; 60% preservative, 24 hour",+
same,MBC test growth score,"[1]; 60% preservative, 48 hour",+
same,MBC test growth score,"[1]; 60% preservative, 72 hour",+/−
same,MBC test growth score,"[1]; 70% preservative, 8 hour",+
same,MBC test growth score,"[1]; 70% preservative, 24 hour",+
same,MBC test growth score,"[1]; 70% preservative, 48 hour",+
same,MBC test growth score,"[1]; 70% preservative, 72 hour",+/−
same,MBC test growth score,"[1]; 80% preservative, 8 hour",+
same,MBC test growth score,"[1]; 80% preservative, 24 hour",+
same,MBC test growth score,"[1]; 80% preservative, 48 hour",+
same,MBC test growth score,"[1]; 80% preservative, 72 hour",+/−
same,MBC test growth score,"[1]; 90% preservative, 8 hour",+
same,MBC test growth score,"[1]; 90% preservative, 24 hour",+
same,MBC test growth score,"[1]; 90% preservative, 48 hour",+
same,MBC test growth score,"[1]; 90% preservative, 72 hour",+/−
same,MBC test growth score,"[1]; 100% preservative, 8 hour",+
same,MBC test growth score,"[1]; 100% preservative, 24 hour",+
same,MBC test growth score,"[1]; 100% preservative, 48 hour",+
same,MBC test growth score,"[1]; 100% preservative, 72 hour",+/−
same,MBC test growth score,"[2]; 10% preservative, 8 hour",+
same,MBC test growth score,"[2]; 10% preservative, 24 hour",+
same,MBC test growth score,"[2]; 10% preservative, 48 hour",+
same,MBC test growth score,"[2]; 10% preservative, 72 hour",+
same,MBC test growth score,"[2]; 20% preservative, 8 hour",+
same,MBC test growth score,"[2]; 20% preservative, 24 hour",+
same,MBC test growth score,"[2]; 20% preservative, 48 hour",+
same,MBC test growth score,"[2]; 20% preservative, 72 hour",+
same,MBC test growth score,"[2]; 30% preservative, 8 hour",+
same,MBC test growth score,"[2]; 30% preservative, 24 hour",+
same,MBC test growth score,"[2]; 30% preservative, 48 hour",+
same,MBC test growth score,"[2]; 30% preservative, 72 hour",+
same,MBC test growth score,"[2]; 40% preservative, 8 hour",+
same,MBC test growth score,"[2]; 40% preservative, 24 hour",+
same,MBC test growth score,"[2]; 40% preservative, 48 hour",+
same,MBC test growth score,"[2]; 40% preservative, 72 hour",+
same,MBC test growth score,"[2]; 50% preservative, 8 hour",+
same,MBC test growth score,"[2]; 50% preservative, 24 hour",+
same,MBC test growth score,"[2]; 50% preservative, 48 hour",+
same,MBC test growth score,"[2]; 50% preservative, 72 hour",+
same,MBC test growth score,"[2]; 60% preservative, 8 hour",+
same,MBC test growth score,"[2]; 60% preservative, 24 hour",+
same,MBC test growth score,"[2]; 60% preservative, 48 hour",+
same,MBC test growth score,"[2]; 60% preservative, 72 hour",+
same,MBC test growth score,"[2]; 70% preservative, 8 hour",+
same,MBC test growth score,"[2]; 70% preservative, 24 hour",+
same,MBC test growth score,"[2]; 70% preservative, 48 hour",+
same,MBC test growth score,"[2]; 70% preservative, 72 hour",+
same,MBC test growth score,"[2]; 80% preservative, 8 hour",+
same,MBC test growth score,"[2]; 80% preservative, 24 hour",+
same,MBC test growth score,"[2]; 80% preservative, 48 hour",+
same,MBC test growth score,"[2]; 80% preservative, 72 hour",+
same,MBC test growth score,"[2]; 90% preservative, 8 hour",+
same,MBC test growth score,"[2]; 90% preservative, 24 hour",+
same,MBC test growth score,"[2]; 90% preservative, 48 hour",+
same,MBC test growth score,"[2]; 90% preservative, 72 hour",+
same,MBC test growth score,"[2]; 100% preservative, 8 hour",+
same,MBC test growth score,"[2]; 100% preservative, 24 hour",+
same,MBC test growth score,"[2]; 100% preservative, 48 hour",+
same,MBC test growth score,"[2]; 100% preservative, 72 hour",+
